Where a name gives a salt, the structure may show the parent alone.
Molecular target: T1, recombinant human CES1 (Homo sapiens, UniProt P23141)
T1 construct: Recombinant human CES1 (Gly18-Glu563, bearing a polyhistidine tag at the C-terminus); polyhistidine (C); purchased Novoprotein, Summit, N.J., USA C450; host or cells: human cells
T1 sequence (P23141 18-563): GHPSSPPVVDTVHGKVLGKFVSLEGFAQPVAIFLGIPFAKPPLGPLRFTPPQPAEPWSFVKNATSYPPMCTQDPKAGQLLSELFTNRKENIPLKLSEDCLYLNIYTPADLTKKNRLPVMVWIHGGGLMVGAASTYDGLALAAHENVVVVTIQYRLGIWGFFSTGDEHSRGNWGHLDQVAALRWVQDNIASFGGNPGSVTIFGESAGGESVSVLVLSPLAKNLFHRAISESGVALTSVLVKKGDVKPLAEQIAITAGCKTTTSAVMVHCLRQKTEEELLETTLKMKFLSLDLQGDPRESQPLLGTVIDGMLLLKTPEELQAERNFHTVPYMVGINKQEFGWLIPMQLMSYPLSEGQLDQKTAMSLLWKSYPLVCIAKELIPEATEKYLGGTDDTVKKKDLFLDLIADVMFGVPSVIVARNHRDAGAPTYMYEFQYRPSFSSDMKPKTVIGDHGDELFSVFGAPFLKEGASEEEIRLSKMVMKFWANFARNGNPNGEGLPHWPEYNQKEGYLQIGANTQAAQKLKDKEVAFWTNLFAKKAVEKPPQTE
Experiment: Hydrolysis by hCES-1 (HPLC assay)
Assay type: in vitro ADME
Settings: 50 μM test compound, 50 nM CES1, 20° C., pH 7.5
Procedure: Hydrolysis of ESM-containing BET inhibitors by carboxylesterase 1 (CES1) is one aspect of delivering a targeted molecule. Rates of hydrolysis of certain compounds of the invention by recombinant human CES1 were determined using an HPLC assay. Recombinant human CES1 (Gly18-Glu563, bearing a polyhistidine tag at the C-terminus) expressed in human cells and purified to homogeneity was obtained from Novoprotein, Summit, N.J., USA (catalogue number C450). Reactions were run in 384 well plates at 20° C. in a buffer of 50 mM sodium phosphate pH 7.5/100 mM NaCl.
Assays used a fixed concentration of test compound (50 μM) and CES1 (50 nM) and a time course of the reaction was obtained by stopping samples at increasing times by addition of formic acid to lower the pH. Stopped samples were subsequently analysed by HPLC to resolve product acid from unhydrolysed ester, using a 50×2 mm C18 5 μM reversed-phase column (Phenomenex Gemini) at a flow rate of 1 ml/min using a gradient of acetonitrile in water, containing 0.1% formic acid. Chromatography was monitored using absorbance at 300 nm wavelength. The % of product formed was determined using integrated peak areas and used to determine the initial rate of the reaction. The specific activity of the CES1 against each test compound under these conditions (in units of μM/min/μM) was obtained by dividing the initial rate of the reaction by the CES1 concentration.

Row | SMILES | rate of hydrolysis (specific activity of CES1 against test compound)
1 | Cc1cc(-c2nc3cc(CN[C@H](C(=O)OC4CCCC4)[C@@H](C)O)ccc3n2CC2CCOCC2)c[nH]c1=O [Example 138, (2S,3R)-cyclopentyl 3-hydroxy-2-(((2-(5-methyl-6-oxo-1,6-dihydropyridin-3-yl)-1-((tetrahydro-2H-pyran-4-yl)methyl)-1H-benzo[d]imidazol-5-yl)methyl)amino)butanoate] | no detectable level of hydrolysis
2 | Cc1cc(-c2nc3cc(CN[C@H](C(=O)OC4CCCC4)C(C)C)ccc3n2CC2CCOCC2)c[nH]c1=O [Example 16, (S)-cyclopentyl 3-methyl-2-(((2-(5-methyl-6-oxo-1,6-dihydropyridin-3-yl)-1-((tetrahydro-2H-pyran-4-yl)methyl)-1-benzo[d]imidazol-5-yl)methyl)amino)butanoate] | no detectable level of hydrolysis

The remaining lines, values ahead:

Row | rate of hydrolysis (specific activity of CES1 against test compound) | SMILES
3 | no detectable level of hydrolysis | Cc1cc(-c2nc3cc(CN[C@H](C(=O)OCC(C)C)[C@@H](C)O)ccc3n2C[C@H]2CN(C)CCO2)cn(C)c1=O (single isomer, unassigned) [Example 162a]
4 | no detectable level of hydrolysis | Cc1cc(-c2nc3cc(CN[C@H](C(=O)OC(C)(C)C)[C@@H](C)O)ccc3n2CC2CCOCC2)cn(C)c1=O [Example 212, (2S,3R)-tert-butyl 2-(((2-(1,5-dimethyl-6-oxo-1,6-dihydropyridin-3-yl)-1-((tetrahydro-2H-pyran-4-yl)methyl)-1H-benzo[d]imidazol-5-yl)methyl)amino)-3-hydroxybutanoate]
5 | no detectable level of hydrolysis | Cc1cc(-c2nc3cc(CN[C@H](C(=O)OC4CCCC4)[C@@H](C)O)ccc3n2CC2CCOCC2)cn(C)c1=O [Example 156, (2S,3R)-cyclopentyl 2-(((2-(1,5-dimethyl-6-oxo-1,6-dihydropyridin-3-yl)-1-((tetrahydro-2H-pyran-4-yl)methyl)-1H-benzo[d]imidazol-5-yl)methyl)amino)-3-hydroxybutanoate]
6 | no detectable level of hydrolysis | COC[C@H](C)n1c(-c2cc(C)c(=O)n(C)c2)nc2cc(CN[C@H](C(=O)O[C@H]3CCOC3)[C@@H](C)O)ccc21 [Example 216]
7 | no detectable level of hydrolysis | Cc1cc(-c2nc3cc(CN[C@H](C(=O)O[C@H]4CCOC4)[C@@H](C)O)ccc3n2CC2CCOCC2)cn(C)c1=O [Example 214]

Molecular target: T2, BRD4 BD2 (Homo sapiens, UniProt O60885, Y97A)
T2 construct: BRD4 (1-477) (Y97A) and (Y390A); made in house; host or cells: E. coli (pET15b vector)
Experiment: TR-FRET binding assay, BRD4 BD2 (mutant protein)
Settings: 10 nM mutated bromodomain protein, Alexa Fluor647 ligand at Kd, read-out: mean pIC50 in the BRD4 BD2 assay (converted)
Procedure: Biological Data Time Resolved Fluorescence Resonance Energy Transfer (TR-FRET) Assay
Binding was assessed using a time resolved fluorescent resonance energy transfer binding assay. This utilises a 6 His purification tag at the N-terminal of the proteins as an epitope for an anti-6 His antibody labeled with Europium chelate (PerkinElmer AD0111) allowing binding of the Europium to the proteins which acts as the donor fluorophore.
In the absence of a competing compound, excitation of the Europium causes the donor to emit at λ618 nm which excites the Alexa labelled bromodomain binding compound leading to an increased energy transfer that is measurable at λ647 nM. In the presence of a sufficient concentration of a compound that can bind these proteins, the interaction is disrupted leading to a quantifiable drop in fluorescent resonance energy transfer.
The binding of compounds of the invention to Bromodomains BRD2, BRD3, BRD4 and BRDT was assessed using mutated proteins to detect differential binding to either Binding Domain 1 (BD1) or Binding Domain 2 (BD2) on the bromodomain. […] Therefore in the final assay conditions, binding of the fluoroligand to the mutated domain cannot be detected and subsequently the assay is suitable to determine the binding of compounds to the single non-mutated bromodomain.
Recombinant Human Bromodomains [(BRD2 (1-473) (Y113A) and (Y386A), BRD3 (1-435) (Y73A) and (Y348A) BRD4 (1-477) (Y97A) and (Y390A) and BRDT (1-397) (Y66A) and (Y309A)] were expressed in E coli cells (in pET15b vector for BRD2/3/4 and in pET28a vector for BRDT) with a 6-His tag at the N-terminal. The His-tagged Bromodomain pellet was resuspended in 50 mM HEPES (pH7.5), 300 mM NaCl, 10 mM imidazole & 1 μl/ml protease inhibitor cocktail and extracted from the E coli cells using sonication and purified using a nickel sepharose high performance column, the proteins were washed and then eluted with a linear gradient of 0-500 mM imidazole with buffer 50 mM HEPES (pH7.5), 150 mM NaCl, 500 mM imidazole, over 20 column volumes. Final purification was completed by Superdex 200 prep grade size exclusion column. Purified protein was stored at −80° C. in 20 mM HEPES pH 7.5 and 100 mM NaCl.
All assay components were dissolved in buffer composition of 50 mM HEPES pH7.4, 50 mM NaCl, 5% Glycerol, 1 mM DTT and 1 mM CHAPS. The final concentration of bromodomain proteins were 10 nM and the Alexa Fluor647 ligand was at Kd. These components were premixed and 5 μl of this reaction mixture was added to all wells containing 50 nl of various concentrations of test compound or DMSO vehicle (0.5% DMSO final) in Greiner 384 well black low volume microtitre plates and incubated in dark for 30 minutes at rt. […] of detection mixture containing 1.5 nM final concentration anti-6His Europium chelate was added to all wells and a further dark incubation of at least 30 minutes was performed. Plates were then read on the Envision plate reader, (⋅ex=317 nm, donor ⋅em=615 nm; acceptor ⋅em=665 nm; Dichroic LANCE dual). Time resolved fluorescent intensity measurements were made at both emission wavelengths and the ratio of acceptor/donor was calculated and used for data analysis. All data was normalized to the mean of 16 high (inhibitor control—Example 11 of WO 2011/054846A1) and 16 low (DMSO) control wells on each plate. A four parameter curve fit of the following form was then applied: y=a+((b−a)/(1+(10^x/10^c)^d) Where ‘a’ is the minimum, […], ‘c’ is the pIC50 and […].

Row | IC50 [µM] | SMILES
8 | > 50.1 | Cc1cc(-c2nc3cc(CN[C@@H](CC(C)C)C(=O)O)ccc3n2CCCO)c[nH]c1=O [Example 21, (S)-2-(((1-(3-hydroxypropyl)-2-(5-methyl-6-oxo-1,6-dihydropyridin-3-yl)-1H-benzo[d]imidazol-5-yl)methyl)amino)-4-methylpentanoic acid, hydrochloride]
9 | > 50.1 | Cc1cc(-c2nc3cc(CN[C@@H](CC(C)C)C(=O)O)ccc3n2C2CCN(C)CC2)c[nH]c1=O [Example 60, (S)-4-methyl-2-(((2-(5-methyl-6-oxo-1,6-dihydropyridin-3-yl)-1-(1-methylpiperidin-4-yl)-1H-benzo[d]imidazol-5-yl)methyl)amino)pentanoic acid, bis-hydrochloride]
10 | > 50.1 | Cc1cc(-c2nc3cc(CN[C@@H](CC(C)C)C(=O)O)ccc3n2CC2CCN(C)CC2)c[nH]c1=O [Example 48, (S)-4-methyl-2-(((2-(5-methyl-6-oxo-1,6-dihydropyridin-3-yl)-1-((1-methylpiperidin-4-yl)methyl)-1H-benzo[d]imidazol-5-yl)methyl)amino)pentanoic acid, bis hydrochloride]
11 | > 50.1 | Cc1cc(-c2nc3cc(CN[C@@H](CC(C)C)C(=O)O)ccc3n2C)c[nH]c1=O [Example 24, (S)-4-methyl-2-(((1-methyl-2-(5-methyl-6-oxo-1,6-dihydropyridin-3-yl)-1H-benzo[d]imidazol-5-yl)methyl)amino)pentanoic acid, hydrochloride]

Source: US11053212B2, “Benzimidazole derivatives as bromodomain inhibitors” (GLAXOSMITHKLINE INTELLECTUAL PROPERTY DEVELOPMENT LIMITED, priority 2015, dated 2021)
